For series [1], the target named is T1, GSK3β (Homo sapiens, UniProt P49841). Kind of series: Promega ADP-Glo kinase assay, GSK3β inhibition. To be noted: for IC50: IC50 GSK3β (ADP-Glo), 10-point three-fold dilution from 100 μM, n = 2; for Hill slope GSK3β (ADP-Glo): four-parameter non-linear regression; for inhibition at 100 µM: read-out: Percent Inhibition of GSK3β, 100 μM, single point, n = 3. Format: biochemical. Background: In ADP-Glo the light output rises with the ADP produced.

Series [2] has as its target T1, GSK3β. Kind of series: Z'LYTE kinase assay. The series is classed as biochemical. To be noted: for Hill slope GSK3β (Z'LYTE): four-parameter non-linear regression.
The target of series [3] is T2, GSK3α (Homo sapiens, UniProt P49840). Briefly: Z'LYTE kinase assay. The series is classed as biochemical. To be noted: for IC50: IC50 GSK3α (Z'LYTE), values of main text and Table S3; for Selectivity GSK3β versus GSK3α: from Z'LYTE IC50 values.
For series [4], the target named is T2, GSK3α. The settings on record: cited from earlier work.
The test system of a further series is GSKβ. The settings on record: cited from earlier work.
The conditions of series [5]: cohort of diabetic individuals ref 74; cited from earlier work.
Another series deals with CYP2D6. To be noted: in vitro ref 75; cited from earlier work.

T2 sequence (P49840 whole entry): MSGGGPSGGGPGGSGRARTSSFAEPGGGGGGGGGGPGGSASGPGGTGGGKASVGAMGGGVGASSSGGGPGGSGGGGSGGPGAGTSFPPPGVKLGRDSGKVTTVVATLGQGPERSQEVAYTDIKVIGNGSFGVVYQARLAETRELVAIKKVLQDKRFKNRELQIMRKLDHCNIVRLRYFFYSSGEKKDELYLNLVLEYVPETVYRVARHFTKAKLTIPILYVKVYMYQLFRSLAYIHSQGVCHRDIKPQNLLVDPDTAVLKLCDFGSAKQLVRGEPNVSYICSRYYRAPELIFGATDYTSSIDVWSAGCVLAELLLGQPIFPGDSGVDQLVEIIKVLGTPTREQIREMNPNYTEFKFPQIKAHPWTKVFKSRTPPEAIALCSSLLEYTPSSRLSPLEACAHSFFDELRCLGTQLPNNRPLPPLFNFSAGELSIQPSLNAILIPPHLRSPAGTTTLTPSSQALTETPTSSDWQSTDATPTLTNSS
T1 sequence (P49841 whole entry): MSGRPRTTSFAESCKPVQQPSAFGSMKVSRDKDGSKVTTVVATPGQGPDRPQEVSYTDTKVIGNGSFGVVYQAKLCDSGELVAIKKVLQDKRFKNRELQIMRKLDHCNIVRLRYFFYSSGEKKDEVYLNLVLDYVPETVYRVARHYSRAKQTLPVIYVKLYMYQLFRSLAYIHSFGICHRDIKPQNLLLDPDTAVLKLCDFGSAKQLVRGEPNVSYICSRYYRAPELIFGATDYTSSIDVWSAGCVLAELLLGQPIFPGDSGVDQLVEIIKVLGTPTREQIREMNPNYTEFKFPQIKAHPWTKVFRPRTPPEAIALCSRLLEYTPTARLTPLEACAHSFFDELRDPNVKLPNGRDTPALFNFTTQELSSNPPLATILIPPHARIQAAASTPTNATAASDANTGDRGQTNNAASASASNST

With `c1ccc2[nH]c(-c3cscn3)nc2c1` [Thiabendazole], at GSK3β [1], the IC50 (in general, the concentration that gives 50% inhibition) was 12.1 µM; the “Hill slope GSK3β (ADP-Glo)” value was −0.68; the inhibition (usually the relative decrease from the control value, in per cent) at 100 µM was over 70%. On GSK3β [2], half-maximal inhibition (IC50) was put at 54.8 µM and the “Hill slope GSK3β (Z'LYTE)” value worked out at 1.10. Also, on GSK3α [3], the IC50 worked out at 60.8 µM and the “Selectivity GSK3β versus GSK3α” value is on record as “non-selective”.
Take `CC(=O)Nc1ncc([N+](=O)[O-])s1` [Nithiamide]: on GSK3β [1], the IC50 was 8.5 µM, the “Hill slope GSK3β (ADP-Glo)” value was −0.80 and the inhibition at 100 µM is over 70%. Besides, at GSK3β [2], 5 µM corresponded to half-maximal inhibition (IC50) and the “Hill slope GSK3β (Z'LYTE)” value was 1.26. On GSK3α [3], the IC50 is 4.4 µM and the “Selectivity GSK3β versus GSK3α” value was “non-selective”.
For `COC(=O)C1=C(C)NC(C)=C(C(=O)OC)C1c1ccccc1[N+](=O)[O-]` [Nifedipine], the inhibition at 100 µM at GSK3β [1] was 69%.
For `CN(C)C[C@@H]1CCn2cc(c3ccccc32)C2=C(C(=O)NC2=O)c2cn(c3ccccc23)CCO1` [Ruboxistaurin], the “Activity for GSK3α in published kinase screening” value at GSK3α [4] was “micromolar activity”. Besides, in the series with GSKβ, the “Activity for GSKβ in published kinase screening” value is listed as “micromolar activity”. In addition, on GSK3β [1], the “Hill slope GSK3β (ADP-Glo)” value is −0.68 and the inhibition at 100 µM is 96%. Besides, the Clinical safety entry in series [5] is “safe up to 32 mg/day for 4 years”. Also, the “Hill slope GSK3β (Z'LYTE)” value at GSK3β [2] is 0.98. In the series with CYP2D6, the “Interaction with CYP2D6” value is reported as “potent interactions”.

(Values after paper PMC7581251 (ACS Omega, 2020).)
